Consider five molecules from ChEMBL document CHEMBL1201862, “PubChem BioAssay data set” (2004).

Some test systems named below: A498; A549; ACHN; HCT-116; HCT-15; HOP-92; IGROV-1; MOLT-4; OVCAR-3; RPMI-8226; SF-295; SK-MEL-2; SK-MEL-5; SW-620; U-251; UO-31; HCC 2998.
What all share (test): NCI tumour cell line growth inhibition, 48 h

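These data come from cells grown in 96-well plates and exposed to compound for 48 hours at five concentrations. GI50: concentration for 50% inhibition of growth.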 The source made the active and inactive calls. Rule as the data show it: active = GI50 up to about 1.1 µM and inactive = higher. Where only a bound is given, the exact number is not on record here.

For the molecule `COc1cccc(C2N3CCCCC3[C@@H]3c4[nH]c5ccccc5c4CCN23)c1OC` (stereo not given in full), the GI50 in the experiment with A498 is 11.4 µM (inactive); with A549, 15.8 µM (inactive); in the experiment with ACHN, 15.2 µM (inactive); in the experiment on HCT-116 it was 17.3 µM (inactive); in the experiment with HCT-15 it was 17.1 µM; with HOP-92, 15.7 µM (inactive). In addition, the GI50 in the experiment on IGROV-1 is 18.2 µM (inactive); with MOLT-4 it was 17.5 µM (inactive); in the experiment with OVCAR-3, 13.1 µM (inactive); with RPMI-8226 it was 18.7 µM (inactive); in the experiment with SF-295, 17.6 µM (inactive); in the experiment with SK-MEL-2 it was 14.5 µM (inactive). The GI50 with SK-MEL-5 was 15.8 µM (inactive); in the experiment with SW-620 it was 17.3 µM (inactive); in the experiment on U-251, 17.2 µM (inactive); in the experiment on UO-31, 14.9 µM (inactive).

As to `[N-]=[N+]=NCC(O)Cn1cnc2c(NC(=O)c3ccccc3)ncnc21` (stereo not given), the GI50 in the experiment with A498 is > 100 µM (inactive); with A549, > 100 µM (inactive); in the experiment with ACHN it was > 100 µM (inactive); with HCC 2998, > 100 µM (inactive); with HCT-116, > 100 µM (inactive); with HCT-15, > 100 µM. The GI50 with HOP-92, with IGROV-1, in the experiment on MOLT-4, in the experiment with RPMI-8226, in the experiment on SF-295 and in the experiment with SK-MEL-2 was > 100 µM (inactive) throughout. Besides, the GI50 in the experiment with SK-MEL-5 is > 100 µM (inactive); in the experiment with SW-620 it was 43.8 µM (inactive); in the experiment on U-251 it was > 100 µM (inactive); in the experiment on UO-31 it was > 100 µM (inactive).

For `CC1(C)C(=NNC(=S)NN)C(C)(C)C1=NNC(=S)NN`, the GI50 with A549, with ACHN, in the experiment with HCC 2998, with HOP-92, in the experiment on IGROV-1 and in the experiment on OVCAR-3 was > 100 µM (inactive) each time. Moreover, the GI50 was > 100 µM (inactive) in the experiment on RPMI-8226; > 100 µM (inactive) in the experiment on SF-295; > 100 µM (inactive) with SK-MEL-2; 58.5 µM (inactive) in the experiment with SK-MEL-5; > 100 µM (inactive) in the experiment with SW-620.

Regarding `CCOC(=O)COc1cccc2c1C(=O)CCO2`, the GI50 was > 100 µM (inactive) in the experiment with A498; > 100 µM (inactive) in the experiment on A549; > 100 µM (inactive) in the experiment on ACHN; > 100 µM (inactive) with HCC 2998; > 100 µM (inactive) with HCT-116; > 100 µM in the experiment on HCT-15. For the same molecule, the GI50 in the experiment on IGROV-1, with MOLT-4, in the experiment with OVCAR-3, with RPMI-8226, in the experiment on SF-295 and in the experiment on SK-MEL-2 was > 100 µM (inactive) throughout. Further, the GI50 in the experiment on SK-MEL-5, with SW-620, in the experiment with U-251 and with UO-31 was > 100 µM (inactive) each time.

For the molecule `CN[C@@H](C)[C@@H](N)c1ccccc1`, the GI50 in the experiment on A498 was > 100 µM (inactive); with A549, > 100 µM (inactive); with ACHN it was > 100 µM (inactive); in the experiment with HCC 2998, > 100 µM (inactive); with HCT-116 it was > 100 µM (inactive); in the experiment with HCT-15, > 100 µM. The GI50 in the experiment on HOP-92, in the experiment on IGROV-1, in the experiment on MOLT-4, in the experiment with OVCAR-3, in the experiment with RPMI-8226 and in the experiment with SF-295 was > 100 µM (inactive) in each case. In addition, the GI50 in the experiment on SK-MEL-5, in the experiment on SW-620, with U-251 and in the experiment on UO-31 was > 100 µM (inactive) in each case.
